The record followed here is patent US9951366B2, “Cell-free protein synthesis method and device using a eukaryotic cell lysate in the presence of a caspase inhibitor and the use of a caspase inhibitor for increasing the yield and/or the stability of the synthesized proteins in such a method” (Fraunhofer-Gesellschaft zur Foerderung der angewandten …, priority 2013, dated 2018).

Peptide text beside a SMILES is read from it. * marks the point of attachment. Cbz = O=C(OCc1ccccc1)*; CH2F = FC*

Experiment [1] relates to Mel-hEGFR-eYFP in Sf21 insect cell lysates. Put plainly: Stability of de novo synthesized Mel-hEGFR-eYFP in batch mode (SDS-PAGE, autoradiography). The experiment is classed as biochemical, Spodoptera frugiperda. The note with it: inhibitor 30 μM. The text has this: The positive influence of the caspase inhibitor on the stability of cell-free synthesized proteins is shown here on the basis of the expression of the EGF receptor, the protein being a human, high molecular weight transmembrane protein (Epidermal Growth Factor Receptor) with intrinsic tyrosine kinase activity. The coding sequence of the EGF receptor was fused N-terminally with a melittin signal sequence (Mel) and C-terminally with yellow fluorescent protein (eYFP) and cloned into the vector pIX3.0 (Qiagen). The model protein is denoted below as Mel-hEGFR-eYFP (=163 kDa). The melittin signal sequence enables translocation of the membrane protein into the microsomes of the eukaryotic cell extract and subsequently embedding into the membrane of the microsomes. Mel-hEGFR-eYFP has nine potential N-glycosylation sites and therefore, due to the translocation of the target protein, N-glycosylation of the target protein is also enabled in the cell-free system. […] The translation reaction was carried out in the absence and the presence of a caspase inhibitor (Z-VAD-FMK, Promega, 30 μM) and a protease inhibitor mixture (“Complete Protease Inhibitor Cocktail”, Roche), respectively, and stopped at the indicated incubation times (1.5 h, 5 h and 24 h) by freezing the translation reaction in liquid nitrogen. […]

Experiment [2] has as its system cell-free eukaryotic translation system on the basis of a cell extract from Spodoptera frugiperda (Sf21) insect cells. Put plainly: Cell-free synthesis of SII-eYFP, protein yield by 14C-leucine incorporation (hot TCA precipitation, scintillation). Format: biochemical. The note with it: −V, +CI. The protocol: The influence of the caspase inhibitor on the maximum achievable protein yield was initially investigated on the basis of the expression of the cytosolic protein SII-eYFP. This model protein is the enhanced yellow fluorescent protein (eYFP) which was fused at the N-terminus with an affinity tag (Strep-Tag, SII-Tag) and was present in the vector pIX3.0 (Qiagen). The expression of the model protein was analyzed in the batch system and the dialysis system (50 μl reaction chamber; 1000 μl feeding chamber; cut-off of the membrane=10 kDa) over a period of 48 h. The translation mixtures were each incubated in the batch system and the dialysis system with (+) and without (−) insect cell vesicles (V) and with (+) and without (−) caspase inhibitor (CI) (at 27° C. and 600 rpm). The protein synthesis was carried out in the presence of the radioactively labeled amino acid ^14C-leucine in order to be able to determine the quantity of de novo synthesized target protein by means of hot TCA precipitation and scintillation measurement. The translation reactions were interrupted at particular time points (0 h, 2 h, 4 h, 24 h and 48 h) and analyzed as follows: 5 μl of the mixture was precipitated in hot TCA or ice-cold acetone in each case. A further 5 μl was resuspended in 25 μl PBS. The remaining sample volume was separated by means of a centrifuging step into the supernatant fluid (SN) and the vesicular fraction (VF). Aliquots of 5 μl of these fractions were diluted in 25 μl PBS each. Following the TCA precipitation, the samples were separated from free radioactive amino acids via a vacuum-driven filtration system and underwent a scintillation measurement. After drying, the proteins precipitated in acetone were collected in a reducing sample buffer and separated electrophoretically.

The test system of experiment [3] is Mel-hEGFR-eYFP in microsomes of the insect cell lysate. In words: Multiple (repetitive) synthesis of Mel-hEGFR-eYFP into microsomes of the insect cell lysate. The experiment is classed as biochemical, Spodoptera frugiperda. The procedure: A suitable method for increasing the concentration of a particular target protein in the lumen or the membrane of the insect cell vesicles lies in carrying out multiple syntheses. This procedure leads to a longer dwell time of the de novo synthesized target proteins in the translation mixture. For successful conversion, it is therefore absolutely necessary to ensure the stability of the target proteins even after relatively long incubation times (>1.5 h) in the translation mixture. For this purpose, the caspase inhibitor Z-VAD-FMK was added to the translation reaction. The multiple synthesis of the target protein was carried out as follows: the microsomes of the translation mixture incubated under standard conditions (27° C., 1.5 h) were pelleted with a centrifugation step at 16,000 g and resuspended in a new translation-active cell lysate without microsomes and incubated again for 1.5 h at 27° C. in the presence of the caspase inhibitor Z-VAD-FMK. In the present experimental example, the synthesis was repeated four times. Following each synthesis step, the yield of radioactively labeled protein in the translation mixture, the supernatant and the vesicular fraction were determined. In addition, 5 μl of the translation mix were precipitated in acetone and subsequently separated out electrophoretically. […] The addition of the caspase inhibitor to the translation reaction enables a synthesis of the target protein over a total of 6 h.

The test system of experiment [4] is cell-free eukaryotic translation system on the basis of a cell extract from Spodoptera frugiperda (Sf21) insect cells. Put plainly: Cell-free expression of membrane proteins (ETB, Hb-EGF, bacteriorhodopsin), protein yield by scintillation measurement. Format: biochemical. The text has this: Here, the influence of the caspase inhibitor on the expression of different membrane proteins in the eukaryotic translation system was investigated more closely. For this purpose, three different model proteins were selected: the endothelin-B receptor (ETB) is a G-protein coupled receptor with seven transmembrane domains which was used cloned into the vector pIX3.0 (Qiagen) for the expression. Furthermore, the type I transmembrane protein heparin-binding EGF-like growth factor (Hb-EGF), N-terminally fused to the melittin signal sequence and C-terminally fused to eYFP, present in the vector pIX3.0, was used for the expression. In addition, the expression of the membrane protein bacteriorhodopsin which also has seven transmembrane domains and was present in the vector pMA (GeneArt) was investigated. The three proteins were each expressed in the batch and dialysis systems without (−) and with (+) the addition of the caspase inhibitor (CI) in the presence of ^14C-leucine for 48 h (27° C.; 600 rpm, Eppendorf Thermomixer Comfort) and analyzed as in example 1. […] The expression of each of the three membrane proteins (ETB, 49.3 kDa; Hb-EGF, 51 kDa; bacteriorhodopsin, 26.9 kDa) was able to be increased in the dialysis system (comparison of the dialysis batches +CI and −CI) with the addition of the caspase inhibitor by approximately 100% (FIG. 2).

[5] abbreviates: from synthesis steps 1 to 4, in presence of Z-VAD-FMK.
[6] abbreviates: dialysis system 48 h, +CI vs −CI.

`COC(=O)C[C@H](NC(=O)[C@H](C)NC(=O)[C@@H](NC(=O)OCc1ccccc1)C(C)C)C(=O)CF` [Z-VAD-FMK, benzyloxycarbonyl-Val-Ala-Asp-[O-methyl]-fluoromethylketone] (Cbz-Val-Ala-Asp(OMe)-CH2F): in experiment [1] (after 24 h incubation time), the “Mel-hEGFR-eYFP integrity in the autoradiograph” value is recorded as “detectable in an intact form”. The “proteolytic decomposition of Mel-hEGFR-eYFP (autoradiograph)” value in experiment [1] (compared with no inhibitor, 5 h) is “reduced signs of a proteolytic decomposition”. Besides, in experiment [2] (batch system after 48 h), the “protein yield of SII-eYFP” value was 17.3 µg/mL. Further, the “protein yield of SII-eYFP” value in experiment [2] (dialysis system after 48 h) stood at 90.8 µg/mL. In experiment [2] (dialysis system vs batch system, 48 h), the “increase of the maximum protein yield of SII-eYFP” value is “approximately 400%”. For the same compound, the “total time over which synthesis of the target protein is enabled” value in experiment [3] (four repeated syntheses of 1.5 h at 27° C. in presence of caspase inhibitor) stood at 6 h. Further, in experiment [3] (setting [5]), the “increase of yield of target protein, total protein in the translation mixture” value was found to be 110% and the “increase of yield of target protein, vesicular fraction” value turned out to be 180%. Further, in experiment [4] (setting [6]), the “increase of expression of ETB” value was “approximately 100%”, the “increase of expression of Hb-EGF” value is “approximately 100%” and the “increase of expression of bacteriorhodopsin” value is reported as “approximately 100%”. Also, the “increase of maximum achievable yields of membrane protein, average” value in experiment [4] (dialysis system, addition of caspase inhibitor) is reported as “approximately 100%”.
